What all share (format): in vivo
The subject of assay [1] is Solanum nigrum (SOLNI). Kind of assay: Pre-emergence biological efficacy, glasshouse pot test. Particulars: evaluated after 13 days, 100=total damage, 0=no damage, read-out: Percentage damage caused to weed species, pre-emergence, SOLNI; for pest or weed control at 1000 g/ha: 312 h, 1,000 g/ha. As for the experimental part:
(§1) Seeds of Alopecurus myosuroides (ALOMY), Setaria faberi (SETFA), Echinochloa crus-galli (ECHCG), Solanum nigrum (SOLNI), Amaranthus retroflexus (AMARE) and Ipomea hederaceae (IPOHE) were sown in standard soil in pots. After cultivation for one day under controlled conditions in a glasshouse (at 24/16° C., day/night; 14 hours light; 65% humidity), the plants were sprayed with an aqueous spray solution derived from the formulation of the technical active ingredient in acetone/water (50:50) solution containing 0.5% Tween 20 (polyoxyethylene sorbitan monolaurate, CAS RN 9005-64-5) to give a final dose of 1000 or 250 g/ha of test compound. The test plants were then grown under controlled conditions in the glasshouse (at 24/16° C., day/night; 14 hours light; 65% humidity) and watered twice daily. After 13 days the test was evaluated (100=total damage to plant; 0=no damage to plant).

Assay [2] deals with Echinochloa crus-galli (ECHCG). Described as above. Particulars: evaluated after 13 days, 100=total damage, 0=no damage, read-out: Percentage damage caused to weed species, pre-emergence, ECHCG; for pest or weed control at 1000 g/ha: 312 h, 1,000 g/ha. On the procedure:
as §1

Assay [3] concerns Alopecurus myosuroides (ALOMY). The description is as above. The settings on record: evaluated after 13 days, 100=total damage, 0=no damage, read-out: Percentage damage caused to weed species, pre-emergence, ALOMY; for pest or weed control at 1000 g/ha: 312 h, 1,000 g/ha. As for the experimental part: as §1
The subject of assay [4] is Amaranthus retroflexus (AMARE). Described as above. The settings on record: evaluated after 13 days, 100=total damage, 0=no damage, read-out: Percentage damage caused to weed species, pre-emergence, AMARE; for pest or weed control at 1000 g/ha: 312 h, 1,000 g/ha. As for the experimental part:
as §1

The subject of assay [5] is Setaria faberi (SETFA). Described as above. Particulars: evaluated after 13 days, 100=total damage, 0=no damage, read-out: Percentage damage caused to weed species, pre-emergence, SETFA; for pest or weed control at 1000 g/ha: 312 h, 1,000 g/ha. On the procedure: as §1
In assay [6] the test system is Ipomea hederaceae (IPOHE). The assay is described as above. Particulars: Ipomoea hederacea, evaluated after 13 days, 100=total damage, 0=no damage, read-out: Percentage damage caused to weed species, pre-emergence, IPOHE; for pest or weed control at 1000 g/ha: 312 h, 1,000 g/ha. As for the experimental part: as §1
The subject of assay [7] is Solanum nigrum (SOLNI). Kind of assay: Post-emergence biological efficacy, glasshouse pot test. The settings on record: evaluated after 13 days, 100=total damage, 0=no damage, read-out: Percentage damage caused to weed species, post-emergence, SOLNI; for pest or weed control at 1000 g/ha: 312 h, 1,000 g/ha. On the procedure:
as §1, with “for 8 days” for “for one day”, “grown on” for “grown”, “in a” for “in the”

The subject of assay [8] is Echinochloa crus-galli (ECHCG). The description is as above. The settings on record: evaluated after 13 days, 100=total damage, 0=no damage, read-out: Percentage damage caused to weed species, post-emergence, ECHCG; for pest or weed control at 1000 g/ha: 312 h, 1,000 g/ha. As for the experimental part:
as §1, with “for 8 days” for “for one day”, “grown on” for “grown”, “in a” for “in the”

For assay [9], the system named is Alopecurus myosuroides (ALOMY). The assay is described as above. Particulars: evaluated after 13 days, 100=total damage, 0=no damage, read-out: Percentage damage caused to weed species, post-emergence, ALOMY; for pest or weed control at 1000 g/ha: 312 h, 1,000 g/ha. As for the experimental part: as §1, with “for 8 days” for “for one day”, “grown on” for “grown”, “in a” for “in the”

The subject of assay [10] is Amaranthus retroflexus (AMARE). The assay is described as above. The settings on record: evaluated after 13 days, 100=total damage, 0=no damage, read-out: Percentage damage caused to weed species, post-emergence, AMARE; for pest or weed control at 1000 g/ha: 312 h, 1,000 g/ha. On the procedure:
as §1, with “for 8 days” for “for one day”, “grown on” for “grown”, “in a” for “in the”

The test system of assay [11] is Setaria faberi (SETFA). The description is as above. Particulars: evaluated after 13 days, 100=total damage, 0=no damage, read-out: Percentage damage caused to weed species, post-emergence, SETFA; for pest or weed control at 1000 g/ha: 312 h, 1,000 g/ha. As for the experimental part:
as §1, with “for 8 days” for “for one day”, “grown on” for “grown”, “in a” for “in the”

The test system of assay [12] is Ipomea hederaceae (IPOHE). Described as above. The settings on record: Ipomoea hederacea, evaluated after 13 days, 100=total damage, 0=no damage, read-out: Percentage damage caused to weed species, post-emergence, IPOHE; for pest or weed control at 1000 g/ha: 312 h, 1,000 g/ha. On the procedure:
as §1, with “for 8 days” for “for one day”, “grown on” for “grown”, “in a” for “in the”

Drawing on patent US20120100990A1, “4 -AMINOPICOLINATES AND THEIR USE AS HERBICIDES” (SYNGENTA CROP PROTECTION LLC, priority 2009, published 2012), this text covers pest or weed control for 6 compounds.

Consider `C=Cc1c(NCc2ccccc2OC)cc(Cl)nc1C(=O)OC` [Compound 73-12, 6-Chloro-3-ethenyl-4-[(2-methoxyphenyl-methyl)-amino]-pyridine-2-carboxylic acid methyl ester], for which the pest or weed control at 1000 g/ha in assay [1] came to 100%; in [2], 20%; in assay [3], 70%; in [4], 100%; in [5] it was 80%; in [6], 70%. The pest or weed control at 1000 g/ha amounted to 90% in assay [7]; 20% in assay [8]; 20% in [9]; 100% in assay [10]; 80% in assay [11]; 50% in [12].
For the compound `COC(=O)c1nc(Cl)cc(NCc2ncccc2C)c1Cl` [Compound 33-2, 3,6-Dichloro-4-[(3-methyl-pyridin-2-ylmethyl)-amino] pyridine-2-carboxylic acid methyl ester], the pest or weed control at 1000 g/ha in assay [1] amounted to 100%; in assay [2], 50%; in assay [3], 60%; in [4], 100%; in [5], 80%; in assay [6], 100%. Besides, the pest or weed control at 1000 g/ha turned out to be 100% in assay [7]; 60% in assay [8]; 60% in assay [9]; 100% in assay [10]; 70% in assay [11]; 80% in assay [12].
On to `C=Cc1c(NCc2ccco2)cc(-c2ccc(Cl)c(N(C)C)c2F)nc1C(=O)OC` [Compound 26-255, 6-(4-Chloro-3-dimethyl-amino-2-fluoro-phenyl)-3-ethenyl-4-[(furan-2-ylmethyl)-amino]-pyridine-2-carboxylic acid methyl ester], for which the pest or weed control at 1000 g/ha in assay [1] was 70%; in [2], 20%; in assay [3], 10%; in assay [4] it was 30%; in assay [5], 10%; in assay [6] it was 10%. In addition, the pest or weed control at 1000 g/ha is 70% in assay [7]; 0% in assay [8]; 0% in [9]; 20% in assay [10]; 0% in assay [11]; 10% in assay [12].
For the compound `COC(=O)c1nc(Cl)c(Cl)c(NCc2ncccc2Cl)c1Br` [Compound 32-41, 3-Bromo-4-[(3-chloro-pyridin-2-ylmethyl)-amino]-5,6-dichloro-pyridine-2-carboxylic acid methyl ester], the pest or weed control at 1000 g/ha came to 80% in assay [1]; 0% in assay [2]; 0% in assay [3]; 90% in assay [4]; 0% in assay [5]; 80% in assay [6]. For the same compound, the pest or weed control at 1000 g/ha came to 90% in assay [7]; 20% in assay [8]; 20% in [9]; 90% in [10]; 60% in [11]; 70% in assay [12].
For `C=Cc1c(C(=O)OC)nc(Cl)c(Cl)c1NCc1ccccc1[N+](=O)[O-]` [Compound 15-39, 5,6-Dichloro-3-ethenyl-4-[(2-nitrophenylmeth-yl)-amino]-pyridine-2-carboxylic acid methyl ester], the pest or weed control at 1000 g/ha amounted to 100% in assay [1]; 80% in [2]; 30% in [3]; 100% in [4]; 40% in assay [5]; 90% in assay [6]. For the same compound, the pest or weed control at 1000 g/ha in assay [7] is 100%; in [8], 60%; in assay [9], 60%; in [10], 100%; in assay [11], 80%; in assay [12], 90%.
Consider `COC(=O)c1nc(Cl)c(F)c(NCc2ncccc2Cl)c1Br` [Compound 32-29, 3-Bromo-6-chloro-4-[(3-chloro-pyridin-2-ylmethyl)-amino]-5-fluoro-pyridine-2-carboxylic acid methyl ester], for which the pest or weed control at 250 g/ha was found to be 80% in assay [1] (312 h, 250 g/ha); 10% in assay [2] (312 h, 250 g/ha); 10% in [3] (312 h, 250 g/ha); 90% in assay [4] (312 h, 250 g/ha); 0% in assay [5] (312 h, 250 g/ha); 70% in assay [6] (312 h, 250 g/ha). For the same compound, the pest or weed control at 250 g/ha turned out to be 80% in assay [7] (312 h, 250 g/ha); 50% in assay [8] (312 h, 250 g/ha); 20% in [9] (312 h, 250 g/ha); 70% in assay [10] (312 h, 250 g/ha); 60% in [11] (312 h, 250 g/ha); 60% in assay [12] (312 h, 250 g/ha).
